Measurements taken from patent US5116863A, “Dibenz[b,e]oxepin derivative and pharmaceutical compositions thereof” (Kyowa Hakko Kogyo Co., Ltd., priority 1986, dated 1992).
Read-outs that look alike come from different tables or passages of the source.

Assays:
[1] = system: Rat carageenin paw edema; assay: Carageenin paw edema test (antiinflammatory activity); assay type: in vivo, Wistar male rats; conditions: average value in one group of 3 rats, 100 mg/kg oral administration
Protocol: Antiinflammatory activity was examined according to Rat carageenin paw edema [J. Pathol. 104, 15-29 (1971)], Groups each consisting of three Wistar male rats weighing 150 g were used. The test compound was suspended in 0.3% aqueous CMC solution and the suspension was given orally. Sixty minutes later, 0.1 ml of 0.1% carageenin was subcutaneously injected in a hind paw to form carageenin paw edema.
The volume of paw was measured before the administration and 3 hours after the administration of carageenin with plethysmometer.
The ratio of the volume 3 hours after the administration to that before the administration of carageenin was calculated and each ratio is compared with the ratio of control group (0.3% CMC was administered) to give the edema inhibiting percentage.

[2] = system: homologous PCA (passive cutaneous anaphlaxis) of rats; assay: Homologous PCA (passive cutaneous anaphylaxis) test of rats for 48 hours, oral (antiallergic activity); assay type: in vivo, Wistar male rats; conditions: for minimal effective dose / responders at 0.1 mg/kg / responders at 1 mg/kg / responders at 10 mg/kg / responders at 100 mg/kg / responders at 0.001 mg/kg / responders at 0.01 mg/kg: Rattus norvegicus; for minimal effective dose: read-out: MED (minimum effective dosage), PCA inhibition; for responders at 0.1 mg/kg / responders at 1 mg/kg / responders at 10 mg/kg / responders at 100 mg/kg / responders at 0.001 mg/kg / responders at 0.01 mg/kg: po; for responders at 0.1 mg/kg / responders at 1 mg/kg / responders at 10 mg/kg / responders at 100 mg/kg / responders at 0.001 mg/kg / Number of positive zooids in one group of 3 zooids / responders at 0.01 mg/kg: positive = inhibition rate 50% or higher; for responders at 0.1 mg/kg / responders at 1 mg/kg / responders at 10 mg/kg / responders at 100 mg/kg / responders at 0.01 mg/kg: read-out: Number of positive zooids in one group of 3 zooids (converted); for responders at 0.001 mg/kg: dosage 0.001 mg/kg, read-out: Number of positive zooids in one group of 3 zooids
Protocol: Antiallergic activity was investigated by a homologous PCA (passive cutaneous anaphlaxis) of rats for 48 hours, where Wistar male rats having body weights of 180 to 220 g were used for sampling of antiserum and Wistar male rats having body weights of 120 to 140 g were used for the PCA test.
Anti-egg white albumin (EWA) rat serum was prepared according to Stotland and Share's method [Canad. J. Physiol. Pharmacol. 52, 1114 (1974)]. That is, 1 mg of EWA was mixed with 20 mg of aluminum hydroxide gel and 0.5 ml of mixed vaccine of pertussis, diphtheria and tetanus, and the mixture was subcutaneously administered in four portions into rat's footpad. After 14 days, blood was sampled from the carotid artery, and the serum was separated from the sampled blood, and preserved under freezing at -80° C. The potency of the antiserumin in the homologous PCA for 48 hours was 1:32.
Groups each consisting of 3 rats were used, and 0.05 ml of anti-EWA rat serum diluted with a physiological saline solution to 8 times as much was incutaneously injected each at two positions of depilated back to make the animals passively sensitised. After 47 hours, the compound of the present invention, or its solution (physiological saline solution or CMC solution) was orally administered. One hour thereafter, 0.5 ml/100 g of 1% Evan's blue physiological saline solution containing 2 mg of the antigen EWA was administered into the tail vein, and 30 minutes thereafter, the animals were sacrificed by exsanguination. Then, the skins were stripped and the amount of leaked pigment at the blue-dyed parts was measured according to the Katayama et al method [Microbiol. Immunol. 22, 89 (1978)]. That is, the blue-dyed parts were cut out by scissors, and placed in test tubes containing 1 ml of 1N KOH and incubated at 37° C. for 24 hours. Then, 9 ml of a mixture of 0.6N phosphoric acid and acetone (5:13) was added thereto, and the mixture was shaked and centrifuged at 2,500 rpm for 10 minutes. Absorbancy of the supernatant at […] was measured, and the amount of leaked pigment was quantitatively determined by the calibration curve prepared in advance. An average of measurements at the two position was made a value for one zooid, and inhibition rate for the individual zooid was calculated by the following formula: [formula]

[3] = system: dd, male mice; assay type: in vivo
Protocol: Groups each consisting of 3 dd, male mice having body weights of 20±1 g were used, and the compound of the present invention was administered orally (po: 300 mg/kg) or intraperitoneally (ip: 100 mg/kg).

[4] = minimum dosage with positive case in at least one of three rats
[5] = mice, mortality 7 days after administration

Row | Structure (SMILES) | Carageenin paw edema inhibiting percentage [1] | minimal effective dose [2, 4] | responders at 0.1 mg/kg ([2]; dosage 0.1 mg/kg) | responders at 1 mg/kg ([2]; dosage 1 mg/kg) | responders at 10 mg/kg ([2]; dosage 10 mg/kg) | responders at 100 mg/kg ([2]; dosage 100 mg/kg) | Acute toxicity (MLD), ip [3, 5] | Acute toxicity (MLD), po [3, 5] | responders at 0.001 mg/kg [2] | Number of positive zooids in one group of 3 zooids ([2]; dosage 0.01 mg/kg) | Number of positive zooids in one group of 3 zooids ([2]; dosage 0.1 mg/kg) | Number of positive zooids in one group of 3 zooids ([2]; dosage 1 mg/kg) | Number of positive zooids in one group of 3 zooids ([2]; dosage 10 mg/kg) | Number of positive zooids in one group of 3 zooids ([2]; dosage 100 mg/kg) | MED (minimum effective dosage), PCA inhibition [2, 4] | responders at 0.01 mg/kg ([2]; dosage 0.01 mg/kg) | Acute toxicity (MLD), ip ([3]; mouse, in vivo, 10080 min) | Acute toxicity (MLD), po ([3]; mouse, in vivo, 10080 min)
1 | CN(C)CCCN=C1c2ccccc2COc2ccc(CC(=O)O)cc21 [Compound 41, 11-(3-Dimethylaminopropyl)imino-6,11-dihydrodibenz[b,e]oxepin-2-acetic acid] | 38.7% | 1 mg/kg | 0% | 33.3% | 66.7% | 100% | > 100 mg/kg | > 300 mg/kg | – | – | – | – | – | – | – | – | – | –
2 | CCN(CC)CCN=C1c2ccccc2COc2ccc(CC(=O)O)cc21 [Compound 39, 11-(2-Diethylaminoethyl)imino-6,11-dihydrodibenz[b,e]oxepin-2-acetic acid] | 50.2% | 1 mg/kg | 0% | 100% | 66.7% | 100% | > 100 mg/kg | > 300 mg/kg | – | – | – | – | – | – | – | – | – | –
3 | CC(C(=O)O)c1ccc2c(c1)C(=NCCN(C)C)c1ccccc1CO2 (centres unmarked) [Compound 45, 2-[11-(2-Dimethylaminoethyl)imino-6,11-dihydrodibenz[b,e]oxepin-2-yl]-propionic acid] | 63.1% | 1 mg/kg | 0% | 66.7% | 100% | 100% | > 100 mg/kg | > 300 mg/kg | – | – | – | – | – | – | – | – | – | –
4 | CN(C)CCN=C1c2ccccc2COc2ccc(CC(=O)O)cc21 [Compound 37, 11-(2-Dimethylaminoethyl)imino-6,11-dihydrodibenz[b,e]oxepin-2-acetic acid] | 51.6% | 10 mg/kg | – | 0% | 100% | 100% | > 100 mg/kg | > 300 mg/kg | – | – | – | – | – | – | – | – | – | –
5 | CN(C)CC/C=C1\c2ccccc2COc2ccc(CC(=O)O)cc21 [Compound 20 (trans), Trans-11-(3-dimethylaminopropylidene)-6,11-dihydrodibenz[b,e]oxepin-2-acetic acid] | – | – | – | – | – | – | > 100 mg/kg | > 300 mg/kg | 0% | 0/3 | 3/3 | 3/3 | 2/3 | 2/3 | 0.1 mg/kg | – | – | –
6 | CN(C)CCCN=C1c2ccccc2COc2cc(CC(=O)O)ccc21 [Compound 49, 11-(3-Dimethylaminopropyl)imino-6,11-dihydrodibenz[b,e]oxepin-3-acetic acid] | 24.1% | – | – | – | – | – | – | – | – | – | – | – | – | – | – | – | – | –
7 | CN(C)CCCC=C1c2ccccc2COc2ccc(CC(=O)O)cc21 [Compound 22, 11-(4-Dimethylaminobutylidene)-6,11-dihydrodibenz[b,e]oxepin-2-acetic acid] | – | 0.1 mg/kg | 33.3% | 66.7% | 100% | 100% | > 100 mg/kg | > 300 mg/kg | – | – | – | – | – | – | – | 0% | – | –
8 | CCN(CC)CCN=C1c2ccccc2COc2ccc(CCC(=O)O)cc21 [Compound 43, 3-[11-(2-Diethylaminoethyl)imino-6,11-dihydrodibenz[b,e]oxepin-2-yl]-propionic acid] | – | 10 mg/kg | 0% | 0% | 66.7% | 100% | > 100 mg/kg | > 300 mg/kg | – | – | – | – | – | – | – | – | – | –
9 | CN(C)CC/C=C1/c2ccccc2COc2ccc(CCO)cc21 [Compound 31 (cis), Cis-11-(3-dimethylaminopropylidene)-2-(2-hydroxyethyl)-6,11-dihydrodibenz[b,e]oxepin] | – | 0.1 mg/kg | 66.7% | 100% | 100% | – | > 100 mg/kg | 300 mg/kg | 0% | – | – | – | – | – | – | 0% | – | –
10 | CN(C)CCN=C1c2ccccc2COc2cc(CC(=O)O)ccc21 [Compound 47, 11-(2-Dimethylaminoethyl)imino-6,11-dihydrodibenz[b,e]oxepin-3-acetic acid] | 46.0% | – | – | – | – | – | – | – | – | – | – | – | – | – | – | – | – | –
11 | CN(C)CC/C=C1/c2ccccc2COc2ccc(CCC(=O)O)cc21 [Compound 28 (cis), Cis-3-[11-(3-dimethylaminopropylidene)-6,11-dihydrodibenz[b,e]oxepin-2-yl]-propionic acid] | – | 0.1 mg/kg | 33.3% | 100% | 66.7% | 100% | > 100 mg/kg | > 300 mg/kg | – | – | – | – | – | – | – | 0% | – | –
12 | CN(C)CC/C=C1/c2ccccc2COc2ccc(CC(=O)O)cc21 [Compound 20 (cis), Cis-11-(3-dimethylaminopropylidene)-6,11-dihydrodibenz[b,e]oxepin-2-acetic acid] | – | 0.01 mg/kg | 100% | 100% | 100% | 100% | > 100 mg/kg | > 300 mg/kg | 0% | – | – | – | – | – | – | 33.3% | – | –
13 | CCN(CC)CCN=C1c2ccccc2COc2ccc(C(=O)O)cc21 [Compound 35, 11-(2-Diethylaminoethyl)imino-6,11-dihydrodibenz[b,e]oxepin-2-carboxylic acid] | – | 10 mg/kg | – | 0% | 33.3% | 100% | > 100 mg/kg | > 300 mg/kg | – | – | – | – | – | – | – | – | – | –
14 | CCN(CC)CC/C=C1/c2ccccc2COc2ccc(C(=O)O)cc21 [Compound 5, 11-(3-Diethylaminopropylidene)-6,11-dihydrodibenz[b,e]oxepin-2-carboxylic acid] | – | 1 mg/kg | – | 100% | 100% | 100% | – | – | – | – | – | – | – | – | – | 0% | > 100 mg/kg | > 300 mg/kg
